Here are results for two compounds from publication PMC5522529, “Mechanisms of Paradoxical Activation of AMPK by the Kinase Inhibitors SU6656 and Sorafenib” (Cell Chemical Biology, 2017).

Each structure is given as a SMILES string.

Assay [1] has as its system Erk1/2. Kind of assay: Erk1/2 phosphorylation in SYF cells. Format: cell-based, mouse. The following applies: SU6656 100 μM, PP2 100 nM.
For assay [2], the target named is T1, AMPK-γ1 R299G (RG) complexes (Homo sapiens, UniProt P54619, R299G).
T1 construct: Plasmid encoding full-length human AMPK-γ1; expressed in transfected cells; host or cells: HeLa
T1 sequence (P54619 whole entry R299G, one chain of several): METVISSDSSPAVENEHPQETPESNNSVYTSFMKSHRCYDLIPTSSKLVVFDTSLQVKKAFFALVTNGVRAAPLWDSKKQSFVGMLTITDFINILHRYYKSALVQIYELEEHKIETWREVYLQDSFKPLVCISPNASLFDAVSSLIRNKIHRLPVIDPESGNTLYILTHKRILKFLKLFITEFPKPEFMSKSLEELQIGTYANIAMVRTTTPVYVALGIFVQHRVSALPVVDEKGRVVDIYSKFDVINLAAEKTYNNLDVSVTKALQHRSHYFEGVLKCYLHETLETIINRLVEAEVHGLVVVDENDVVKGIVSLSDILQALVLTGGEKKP
Kind of assay: Activation by LKB1 of FLAG-AMPK-γ1 R299G (RG) complexes precipitated from HeLa cells. In kind it is biochemical. The following applies: RG mutant γ1; AMP 200 μM or SU6656 3 μM, 10 min. An excerpt:
(B) Effect of ATP concentration on kinase activity of α2-KD in the presence of increasing concentrations of SU6656. Results (mean, n = 2) were fitted to the equation Y= (Vmax × X)/(Km × (1 + I/Ki) + X), where Y is the activity, X is the ATP concentration, I is the concentration of SU6656, and Ki is the inhibitory constant for SU6656. […] (D and E) Effect of increasing concentrations of SU6656 on activity (D) and Thr172 phosphorylation (E) induced by LKB1 with unphosphorylated α2-KD (WT/AT mutant). Results in (D) are mean ± SEM (n = 3); and were fitted to same equation as Figure 4C. […] See also Figure S3. (F) Effect of AMP (2 mM) and SU6656 on inactivation of AMPK by PP2Cα in the presence of 5 mM ATP. […] (G) Effects of AMP or SU6656 on activation (top) and Thr172 phosphorylation (bottom) by LKB1 of AMPK-γ1 complexes expressed in HeLa cells. FLAG-tagged AMPK-γ1, either wild-type (WT) or R299G mutant (RG), was expressed in HeLa cells and AMPK complexes precipitated using anti-FLAG antibody. The complexes (which have low basal phosphorylation due to lack of LKB1 in HeLa cells) were incubated with or without a limiting amount of LKB1, AMP (200 μM) or SU6656 (3 μM) for 10 min and AMPK activity determined. […]

In assay [3] the target is T2, human AMPK-α2 Y436F mutant (Homo sapiens, UniProt P54646, Y436F).
T2 construct: expressed in transfected cells; host or cells: HEK293 (transient transfection)
T2 sequence (P54646 whole entry Y436F): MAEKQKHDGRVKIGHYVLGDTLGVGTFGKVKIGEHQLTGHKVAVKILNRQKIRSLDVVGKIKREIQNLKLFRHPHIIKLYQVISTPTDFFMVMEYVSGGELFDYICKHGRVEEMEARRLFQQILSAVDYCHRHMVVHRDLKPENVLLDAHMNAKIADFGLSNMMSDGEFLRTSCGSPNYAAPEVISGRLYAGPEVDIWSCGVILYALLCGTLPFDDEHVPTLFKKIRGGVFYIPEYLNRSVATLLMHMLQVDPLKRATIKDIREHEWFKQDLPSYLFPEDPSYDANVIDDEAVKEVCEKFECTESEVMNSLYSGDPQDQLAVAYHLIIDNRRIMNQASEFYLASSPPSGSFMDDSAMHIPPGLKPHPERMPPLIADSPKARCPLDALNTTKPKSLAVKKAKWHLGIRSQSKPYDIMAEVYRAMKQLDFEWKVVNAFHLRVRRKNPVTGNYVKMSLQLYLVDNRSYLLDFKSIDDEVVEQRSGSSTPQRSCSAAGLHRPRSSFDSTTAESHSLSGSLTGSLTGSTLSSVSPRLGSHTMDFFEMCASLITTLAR
T2 sequence (P54619 whole entry partner): as the sequence (P54619 whole entry R299G, one chain of several) above, with G299R counted along it
Kind of assay: AMPK activity of FLAG-tagged Y436F AMPK-α2 expressed in HEK293 cells. Format: cell-based. The following applies: SU6656 100 μM, phenformin 10 mM, A23187 10 μM, 1 hr. As for the experimental part:
Top: AMPK activity (mean ± SEM, n = 4); bottom: western blots showing phosphorylation of Thr172 on AMPK, and of ERK1/2, in cells treated with DMSO (control), SU6656 (100 μM), or PP2 (100 nM) (n = 2). (B) As (A), but in SYF cells. (C) HeLa cells were transfected with DNAs encoding GFP alone, or GFP fused to WT, Y261F/Y365F (FF), or Y36F/Y261F/Y365F (FFF) mutants of LKB1; cells were treated with increasing concentrations of SU6656 for 1 hr and AMPK activity determined (mean ± SEM, n = 4). See also Figure S1. (D) HEK293 cells were transfected with DNAs encoding FLAG-tagged AMPK-α2 with or without a Y436F mutation. Cells were incubated with DMSO (control), 100 μM SU6656, 10 mM phenformin, or 10 μM A23187 for 1 hr; AMPK complexes were immunoprecipitated using anti-FLAG antibody and assayed. The top panels show kinase activities (mean ± SD, n = 3); the bottom panels show blots from the same experiment (n = 2). In all panels, asterisks indicate significant differences from DMSO controls; in (D), there were no significant differences between the WT and Y463F mutant. **p < 0.01, ****p < 0.0001.

Assay [4] addresses T3, α2-KD A156T (AT) mutant (Homo sapiens, UniProt P54646, A156T).
T3 construct: amplifying residues 1-310 with 5' BamH1 and 3' Xho1 sites; made in house; host or cells: bacteria
Kind of assay: Activation and phosphorylation of unphosphorylated α2-KD AT mutant by LKB1. Format: biochemical. An excerpt: (B) Effect of ATP concentration on kinase activity of α2-KD in the presence of increasing concentrations of SU6656. Results (mean, n = 2) were fitted to the equation Y= (Vmax × X)/(Km × (1 + I/Ki) + X), where Y is the activity, X is the ATP concentration, I is the concentration of SU6656, and Ki is the inhibitory constant for SU6656. […] (D and E) Effect of increasing concentrations of SU6656 on activity (D) and Thr172 phosphorylation (E) induced by LKB1 with unphosphorylated α2-KD (WT/AT mutant). Results in (D) are mean ± SEM (n = 3); and were fitted to same equation as Figure 4C. […] See also Figure S3. (F) Effect of AMP (2 mM) and SU6656 on inactivation of AMPK by PP2Cα in the presence of 5 mM ATP. […] (G) Effects of AMP or SU6656 on activation (top) and Thr172 phosphorylation (bottom) by LKB1 of AMPK-γ1 complexes expressed in HeLa cells. FLAG-tagged AMPK-γ1, either wild-type (WT) or R299G mutant (RG), was expressed in HeLa cells and AMPK complexes precipitated using anti-FLAG antibody. The complexes (which have low basal phosphorylation due to lack of LKB1 in HeLa cells) were incubated with or without a limiting amount of LKB1, AMP (200 μM) or SU6656 (3 μM) for 10 min and AMPK activity determined.
We next used unphosphorylated α2-KD and tested the effect of SU6656 on its activation and phosphorylation by LKB1.

Assay [5] addresses T3, α2-KD A156T (AT) mutant. Kind of assay: Inhibition of phosphorylated α2 kinase domain, A156T (AT) mutant. In kind it is biochemical.
Assay [6] deals with Raptor. Kind of assay: Raptor phosphorylation in HEK293 cells (western blot). Format: cell-based, human. To be noted: 1 hr. Here is the method:
Figure 1 SU6656 Activates AMPK but Not AMPK-Related Kinases (A) HEK293 cells were incubated with the indicated concentrations of SU6656 or berberine (300 μM) for 1 hr; total AMPK activity was assayed in immunoprecipitates (top; mean ± SEM, n = 4), and phosphorylation of AMPK (Thr172), ACC (Ser80), and Raptor (Ser792) analyzed by western blotting (bottom; n = 2). (B) HEK293 cells were incubated with 100 μM SU6656 (1 hr), AMPK complexes containing α1, α2, β1, and β2 immunoprecipitated using isoform-specific antibodies, and AMPK activity measured (mean ± SEM, n = 4). (C) HeLa cells stably expressing LKB1 ([Fogarty et al., 2010]) were incubated with 100 μM SU6656 for 1 hr, AMPK or individual ARKs immunoprecipitated, and kinase assays carried out (antibodies that distinguish MARK2/MARK3 were not available, so they were assayed together). Results are means ± SEM (n = 2). In all panels, asterisks indicate significant differences from controls without SU6656. *p < 0.05, **p < 0.01, ****p < 0.0001.
SDS-PAGE was performed using precast Bis-Tris 4–12% gradient polyacrylamide gels in the MOPS buffer system (ThermoFisher Scientific). Proteins were transferred to nitrocellulose membranes using the iBlot 2 system (ThermoFisher Scientific). […] Protein concentrations were determined by Coomassie Blue binding with bovine serum albumin as standard ([Bradford, 1976]). […]
Background: In western blotting, separated proteins are transferred to a membrane and probed.

T3 sequence (P54646 1-310 A156T): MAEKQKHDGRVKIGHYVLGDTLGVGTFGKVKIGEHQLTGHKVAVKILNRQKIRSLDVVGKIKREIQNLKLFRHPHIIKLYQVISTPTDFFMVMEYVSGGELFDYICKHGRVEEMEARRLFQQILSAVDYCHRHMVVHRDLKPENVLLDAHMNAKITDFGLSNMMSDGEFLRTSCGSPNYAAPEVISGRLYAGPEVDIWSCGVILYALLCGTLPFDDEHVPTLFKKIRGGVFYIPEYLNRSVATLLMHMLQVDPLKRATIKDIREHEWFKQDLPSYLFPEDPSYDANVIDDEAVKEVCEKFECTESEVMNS

For orientation: EC50 means the midpoint of the concentration-response curve. A high value points to weaker potency. The term IC50 denotes the concentration that inhibits the measured activity by half. For the compound `CN(C)S(=O)(=O)c1ccc2c(c1)/C(=C/c1cc3c([nH]1)CCCC3)C(=O)N2` [SU6656], the Erk1/2 phosphorylation result in assay [1] is “inhibited Erk1/2 phosphorylation”. Moreover, the “activation and Thr172 phosphorylation by LKB1” value in assay [2] is given as “preserved”. Further, in assay [3], the “AMPK activation response with Y436F mutation” value is given as “unaffected by the Y436F mutation”. For the same compound, in assay [4], the EC50 stood at 70 nM and the “activation of α2-KD by LKB1” value worked out at 1.07 fold. Moreover, the IC50 in assay [5] (AT mutant α2-KD phosphorylated using CaMKK2, read-out: IC50 for inhibition of catalytic activity) was 1700 ± 300 nM. Further, the “fold less potent inhibition with AT mutant than WT” value in assay [5] (AT versus WT α2-KD) is approximately 10 fold.

In the case of `COc1ccc2cc3[n+](cc2c1OC)CCc1cc2c(cc1-3)OCO2` [berberine], the Raptor phosphorylation entry in assay [6] is “did promote Raptor phosphorylation”.
